Experimental data published in patent US20240174690A1, “ANNULATED 2-AMINO-3-CYANO THIOPHENES AND DERIVATIVES FOR THE TREATMENT OF CANCER” (BOEHRINGER INGELHEIM INTERNATIONAL GMBH, priority 2021, published 2024).

Columns and labels:
KRAS (G12D)::SOS1 = KRAS (G12D)::SOS1 (Homo sapiens (Human), UniProt P01116, G12D); assay: KRAS::SOS1 AlphaScreen binding assay, KRAS G12D
How it was run: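 KRAS 1-169 (biotinylated avi-tag) with GST-SOS1 564-1049 and 10 µM GDP in PBS/0.1% BSA/0.05% Tween 20: WT and G13D 10 nM each with 10 nM SOS1; G12D 10 nM and G12C 7.5 nM with 5 nM SOS1. After 30 min, glutathione acceptor/streptavidin donor beads were added for 60 min at RT in the dark, then AlphaScreen read; 4-parameter IC50.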

[1] = Caco-2 assay (permeability PappAB, PappBA, efflux ratio); assay type: in vitro ADME; conditions: human, Caco-2, 10 μM test compound, pH 7.4; for Papp A→B at 90 min, 10 μM: apical to basolateral; for efflux ratio at 90 min, 10 μM: efflux ratio PappBA/PappAB, read-out: Caco ER
How it was run: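 Confluent Caco-2 monolayers on filter supports, 0.25% BSA in both donor and receiver buffer; transport measured a-b and b-a. After 25-30 min preincubation at 37 °C, samples at 0, 30, 60, 90 min quantified by HPLC/MS/MS. Papp from receiver amount per time, filter area and initial donor concentration; efflux ratio = PappBA/PappAB.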

Sequence of KRAS (G12D)::SOS1 (P01116 other isoform, or with tags, fused parts or gaps G12D): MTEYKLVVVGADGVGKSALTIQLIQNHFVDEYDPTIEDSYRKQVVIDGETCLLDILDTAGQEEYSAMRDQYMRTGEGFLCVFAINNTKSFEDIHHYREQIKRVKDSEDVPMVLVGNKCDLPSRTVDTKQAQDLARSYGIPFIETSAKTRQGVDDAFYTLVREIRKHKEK

Row | Compound | IC50 (KRAS (G12D)::SOS1) | Papp A→B at 90 min, 10 μM [1] | efflux ratio at 90 min, 10 μM [1]
1 | C[C@H](Oc1cc(-c2ccn(C)n2)nc(-c2onc3c2CCC[C@@]32CCCc3sc(N)c(C#N)c32)n1)[C@@H]1CCCN1C [I-21] | 4 nM | – | –
2 | CO[C@H]1CCN(C)[C@@H]1[C@H](C)Oc1cc(N2CCNC3(CC3)C2)nc(-c2onc3c2CCC[C@@]32CCCc3sc(N)c(C#N)c32)n1 [I-49] | 1 nM | 10 ×10⁻⁶ cm/s | 2.9
3 | C[C@H](Oc1cc(N2CCN(C)C3(COC3)C2)nc(-c2noc3c2CCC[C@@]32CCCc3sc(N)c(C#N)c32)n1)[C@@H]1CCCN1C [II-13] | 1 nM | 1.4 ×10⁻⁶ cm/s | 21.4
4 | C[C@H](Oc1cc(N2CCNC3(CC3)C2)nc(-c2onc3c2CCC[C@@]32CCCc3sc(N)c(C#N)c32)n1)[C@@H]1C[C@@H](F)CN1C [I-45] | 1 nM | 11 ×10⁻⁶ cm/s | 3.1
5 | CO[C@@H]1C[C@@H]([C@H](C)Oc2cc(N3CCN(C)C4(CC4)C3)nc(-c3onc4c3CCC[C@@]43CCCc4sc(N)c(C#N)c43)n2)N(C)C1 [I-50] | 1 nM | – | 1.7
6 | C[C@H](Oc1cc(N2CCNC3(CCC3)C2)nc(-c2onc3c2CCC[C@@]32CCCc3sc(N)c(C#N)c32)n1)[C@@H]1CCCN1C [I-3] | 1 nM | 1.2 ×10⁻⁶ cm/s | 20.8
7 | C[C@H](Oc1cc(-n2ccc(C(=O)N3CCCC3)n2)nc(-c2noc3c2CCC[C@@]32CCCc3sc(N)c(C#N)c32)n1)[C@@H]1CCCN1C [II-19] | 1 nM | – | –
8 | C[C@H](Oc1cc(-n2ccnc2)nc(-c2onc3c2CCC[C@@]32CCCc3sc(N)c(C#N)c32)n1)[C@@H]1CCCN1C [I-20] | 2 nM | 4.3 ×10⁻⁶ cm/s | 4.9
9 | CCOC(=O)c1ccn(-c2cc(O[C@@H](C)[C@@H]3CCCN3C)nc(-c3noc4c3CCC[C@@]43CCCc4sc(N)c(C#N)c43)n2)n1 [II-23] | 2 nM | – | –
10 | C[C@H]1CN(C)CCCN1c1cc(N2CCN(C)CC2)nc(-c2noc3c2CCC[C@@]32CCCc3sc(N)c(C#N)c32)n1 [II-30] | 4 nM | – | –
11 | C[C@H](Oc1cc(Cl)nc(-c2onc3c2CCC[C@@]32CCCc3sc(N)c(C#N)c32)n1)[C@@H]1CCCN1C [I-1] | 3 nM | – | –
12 | CO[C@H]1CCN(C)[C@@H]1[C@H](C)Oc1cc(-n2ccc(C(=O)N[C@H]3CCOC3)n2)nc(-c2onc3c2CCC[C@@]32CCCc3sc(N)c(C#N)c32)n1 [I-54] | 1 nM | – | –
13 | C[C@H](Oc1cc(N2CC[C@H](N3CCCC3)C2)nc(-c2noc3c2CCC[C@@]32CCCc3sc(N)c(C#N)c32)n1)[C@@H]1CCCN1C [II-14] | 1 nM | 1 ×10⁻⁶ cm/s | 32.3
14 | C[C@H](Oc1cc(N2C[C@H](C)N(C)[C@@H](C)C2)nc(-c2onc3c2CCC[C@@]32CCCc3sc(N)c(C#N)c32)n1)[C@@H]1CCCN1C [I-43] | 1 nM | 2.6 ×10⁻⁶ cm/s | 6.7
15 | C[C@H](Oc1cc([C@@H]2CCN(C)C2)nc(-c2noc3c2CCC[C@@]32CCCc3sc(N)c(C#N)c32)n1)[C@@H]1CCCN1C [II-37] | 1 nM | 0.2 ×10⁻⁶ cm/s | 121
16 | C[C@H](Oc1cc(N2CCNC3(CCCC3)C2)nc(-c2noc3c2CCC[C@@]32CCCc3sc(N)c(C#N)c32)n1)[C@@H]1CCCN1C [II-41] | 1 nM | – | –
17 | C[C@H](Oc1cc(-n2ccc(C(=O)NC3COC3)n2)nc(-c2noc3c2CCC[C@@]32CCCc3sc(N)c(C#N)c32)n1)[C@@H]1CCCN1C [II-25] | 2 nM | 1.1 ×10⁻⁶ cm/s | 22.7
18 | C[C@H](Oc1cc(-n2ccc(C(N)=O)n2)nc(-c2noc3c2CCC[C@@]32CCCc3sc(N)c(C#N)c32)n1)[C@@H]1CCCN1C [II-21] | 2 nM | 3.5 ×10⁻⁶ cm/s | 6.6
19 | C[C@H](Oc1cc(-n2nccn2)nc(-c2onc3c2CCC[C@@]32CCCc3sc(N)c(C#N)c32)n1)[C@@H]1CCCN1C [I-29] | 6 nM | – | –
20 | C[C@H](Oc1cc(-c2cnn(C)n2)nc(-c2noc3c2CCC[C@@]32CCCc3sc(N)c(C#N)c32)n1)[C@@H]1C[C@@H](F)CN1C [II-28] | 22 nM | – | –
21 | C[C@H](Oc1cc(N2CCN(C)CC2)nc(-c2noc3c2CCC[C@@]32CCCc3sc(N)c(C#N)c32)n1)[C@@H]1CCCN1[C@@H]1CCOC1 [II-39] | 1 nM | – | –
22 | C[C@H](Oc1cc(N2CCNCC2)nc(-c2noc3c2CCC[C@@]32CCCc3sc(N)c(C#N)c32)n1)[C@@H]1CCCN1C [II-45] | 1 nM | – | –
23 | Cc1nc(-c2cc(O[C@@H](C)[C@@H]3CCCN3C)nc(-c3onc4c3CCC[C@@]43CCCc4sc(N)c(C#N)c43)n2)cs1 [I-24] | 2 nM | – | –

Row | Compound | IC50 (KRAS (G12D)::SOS1) | Papp A→B at 90 min, 10 μM [1] | efflux ratio at 90 min, 10 μM [1]
24 | C[C@H]1CN(C)CCCN1c1nc(-c2onc3c2CCC[C@@]32CCCc3sc(N)c(C#N)c32)cc(N2CCN(C)C3(CC3)C2)n1 [I-42] | 35 nM | – | –
25 | COCCNC(=O)c1ccn(-c2cc(O[C@@H](C)[C@@H]3[C@@H](OC)CCN3C)nc(-c3onc4c3CCC[C@@]43CCCc4sc(N)c(C#N)c43)n2)n1 [I-55] | 1 nM | – | –
26 | C[C@H](Oc1cc(-n2ccnn2)nc(-c2onc3c2CCC[C@@]32CCCc3sc(N)c(C#N)c32)n1)[C@@H]1CCCN1C [I-32] | 2 nM | – | –
27 | C[C@H](Oc1cc(-c2ccn3ncnc3c2)nc(-c2onc3c2CCC[C@@]32CCCc3sc(N)c(C#N)c32)n1)[C@@H]1CCCN1C [I-33] | 6 nM | – | –
28 | Cc1ccc(-c2cc(O[C@@H](C)[C@@H]3CCCN3C)nc(-c3onc4c3CCC[C@@]43CCCc4sc(N)c(C#N)c43)n2)cn1 [I-28] | 10 nM | – | –
29 | [2H]C([2H])([2H])N1C[C@H](F)C[C@H]1[C@H](C)Oc1cc(N2CCN(C)C3(CC3)C2)nc(-c2noc3c2CCC[C@@]32CCCc3sc(N)c(C#N)c32)n1 [II-209] | – | – | 0.8
30 | C[C@H](Oc1cc(-n2ccc(C(=O)O)n2)nc(-c2noc3c2CCC[C@@]32CCCc3sc(N)c(C#N)c32)n1)[C@@H]1CCCN1C [II-24] | 3 nM | – | –
31 | C[C@H](Oc1cc(N2CCN(C)C3(CC3)C2)nc(-c2onc3c2CCC[C@@]32CCCc3sc(N)c(C#N)c32)n1)[C@@H]1CCCN1C [I-41] | 1 nM | – | –
32 | CO[C@H]1CCN(C)[C@@H]1[C@H](C)Oc1cc(-n2ccc(CC(=O)NC(C)C)n2)nc(-c2onc3c2CCC[C@@]32CCCc3sc(N)c(C#N)c32)n1 [I-48] | 1 nM | – | –
33 | C[C@H](NC(=O)c1ccn(-c2cc(O[C@@H](C)[C@@H]3CCCN3C)nc(-c3onc4c3CCC[C@@]43CCCc4sc(N)c(C#N)c43)n2)n1)c1ccccn1 [I-59] | 1 nM | – | –
34 | CO[C@H]1CCN(C)[C@@H]1[C@H](C)Oc1cc(-n2ccc(C(=O)N[C@@H]3CCOC3)n2)nc(-c2onc3c2CCC[C@@]32CCCc3sc(N)c(C#N)c32)n1 [I-53] | 1 nM | – | –
35 | C[C@H](Oc1cc(-n2ccc(C(=O)N[C@H]3CCOC3)n2)nc(-c2onc3c2CCC[C@@]32CCCc3sc(N)c(C#N)c32)n1)[C@@H]1CCCN1C [I-57] | 2 nM | – | –
36 | C[C@H](Oc1cc(N2C[C@@H](N(C)C)[C@@H](F)C2)nc(-c2noc3c2CCC[C@@]32CCCc3sc(N)c(C#N)c32)n1)[C@@H]1CCCN1C [II-11] | 1 nM | – | –
37 | C[C@@H]1CN(c2cc(O[C@@H](C)[C@@H]3CCCN3C)nc(-c3noc4c3CCC[C@@]43CCCc4sc(N)c(C#N)c43)n2)C[C@H](C)N1 [II-36] | 1 nM | – | –
38 | C[C@H](Oc1nc(-c2onc3c2CCC[C@@]32CCCc3sc(N)c(C#N)c32)cc(N2CCN(C)C3(CC3)C2)n1)[C@@H]1CCCN1C [I-40] | 6 nM | – | –
39 | [2H]C([2H])([2H])N1C[C@H](F)C[C@H]1[C@H](C)Oc1cc(N2CCNC3(CC3)C2)nc(-c2noc3c2CCC[C@@]32CCCc3sc(N)c(C#N)c32)n1 [II-208] | – | – | 1.8
40 | C[C@H](Oc1cc(N2C[C@H](C)NC3(CC3)C2)nc(-c2noc3c2CCC[C@@]32CCCc3sc(N)c(C#N)c32)n1)[C@@H]1C[C@@H](F)CN1C [II-18] | 2 nM | – | –
41 | C[C@H](Oc1cc(-n2ccc(C(=O)N(C)C3COC3)n2)nc(-c2onc3c2CCC[C@@]32CCCc3sc(N)c(C#N)c32)n1)[C@@H]1CCCN1C [I-60] | 1 nM | – | –
42 | C[C@H](Oc1cc(-c2ccc(N)nc2)nc(-c2onc3c2CCC[C@@]32CCCc3sc(N)c(C#N)c32)n1)[C@@H]1CCCN1C [I-25] | 5 nM | – | –
43 | C[C@@H]1CN(c2cc(O[C@@H](C)[C@@H]3C[C@@H](F)CN3C)nc(-c3noc4c3CCC[C@@]43CCCc4sc(N)c(C#N)c43)n2)CC2(CC2)N1 [II-17] | 2 nM | – | –
44 | C[C@H](Oc1cc(N2CCN(C)C3(CCC3)C2)nc(-c2onc3c2CCC[C@@]32CCCc3sc(N)c(C#N)c32)n1)[C@@H]1CCCN1C [I-44] | 2 nM | – | –
45 | C[C@H](Oc1cc(N2CC[C@@H](N(C)C)C2)nc(-c2noc3c2CCC[C@@]32CCCc3sc(N)c(C#N)c32)n1)[C@@H]1CCCN1C [II-47] | 1 nM | – | –
